{
  "source": "patent US10226441B2",
  "about": "“Aging inhibitor” (NIHON SIZEN HAKKOH CO., LTD., priority 2014, dated 2019)",
  "origin": "cited, not measured here",
  "test_system": "mice of the same species (SAM-P1, male)",
  "data": [
    {"smiles": "COC1=C(OC)C(=O)C(C/C=C(\\C)CC/C=C(\\C)CC/C=C(\\C)CC/C=C(\\C)CC/C=C(\\C)CC/C=C(\\C)CC/C=C(\\C)CC/C=C(\\C)CC/C=C(\\C)CCC=C(C)C)=C(C)C1=O", "note": "[CoQ10, coenzyme Q10]", "values": [
      {"measurement": "Average survival, Age in weeks", "setting": "Non-Patent Literature 14", "value": 73.98, "unit": "weeks"}
    ]},
    {"smiles": "COc1c(O)c(C)c(C/C=C(\\C)CC/C=C(\\C)CC/C=C(\\C)CC/C=C(\\C)CC/C=C(\\C)CC/C=C(\\C)CC/C=C(\\C)CC/C=C(\\C)CC/C=C(\\C)CCC=C(C)C)c(O)c1OC", "note": "[CoQ10H2]", "values": [
      {"measurement": "Average survival (Days)", "setting": "Non-Patent Literature 14", "value": "(519.64 ± 79.53) days"},
      {"measurement": "Average survival, Age in weeks", "setting": "Non-Patent Literature 14", "value": 74.234, "unit": "weeks"},
      {"measurement": "Average survival", "setting": "Non-Patent Literature 14, listed as reduced CoQ10", "value": 519.64, "unit": "days"}
    ]}
  ]
}
